Source: the NIST ThermoML archive (doi:10.1016/j.tca.2014.05.033)
Several values for one entry are separate records, joined by “and”; a condition that tells them apart may be missing. Equal entries are not always repeated.

Columns and labels:
[1] = molar enthalpy of vaporization or sublimation; conditions: 298.15 K, DSC
[2] = Transpiration method

c1ccc2c(c1)ccc1ccccc12 [phenanthrene]
Conditions	molar enthalpy [kcal/mol]
[1], Crystal 2	22.1

[2]
Conditions	vapor or sublimation pressure [kPa]
306.2 K, Crystal 2	5e-05
309.4 K, Crystal 2	7e-05
313.2 K, Crystal 2	0.00012
316.3 K, Crystal 2	0.00016
319.3 K, Crystal 2	0.00021
322.3 K, Crystal 2	0.00031
325.2 K, Crystal 2	0.00043
328.4 K, Crystal 2	0.00055
329.2 K, Crystal 2	0.00063
330.7 K, Crystal 2	0.00073
334.2 K, Crystal 2	0.00101
337.2 K, Crystal 2	0.00135
340.3 K, Crystal 2	0.00178
343.4 K, Crystal 2	0.00229
346.3 K, Crystal 2	0.00306
349.4 K, Crystal 1	0.00403
352.4 K, Crystal 1	0.00545
355.5 K, Crystal 1	0.00705
356.8 K, Crystal 1	0.0076
358.6 K, Crystal 1	0.00914
359.2 K, Crystal 1	0.00907
362.3 K, Crystal 1	0.01171
365.3 K, Crystal 1	0.01534
368.3 K, Crystal 1	0.01988
370.4 K, Crystal 1	0.02298

c1ccc(-c2cccc3ccccc23)cc1 [1-phenylnaphthalene]
Conditions	molar enthalpy [kcal/mol]
[1], Liquid	19.8

[2], Liquid
Conditions	vapor or sublimation pressure
318.5 K	0.00026 kPa
323.5 K	0.00038 kPa
328.3 K	0.00062 kPa
328.4 K	0.0006 kPa
333.4 K	0.00092 kPa
338 K	0.00136 kPa
343.6 K	0.00209 kPa and 0.0021 kPa
351 K	0.00376 kPa
353.1 K	0.00462 kPa
358.3 K	0.00644 kPa
358.5 K	0.00687 kPa
363 K	0.00953 kPa
368.3 K	0.01352 kPa
371 K	0.01665 kPa

c1ccc(-c2ccccc2-c2ccccc2)cc1 [o-terphenyl]
Conditions	molar enthalpy [kcal/mol]
[1], Crystal	25.3

[2], Liquid
Conditions	vapor or sublimation pressure [kPa]
343.5 K	0.00166
345.5 K	0.00195
346.4 K	0.0021
348.4 K	0.0025
349.5 K	0.0027
351.5 K	0.00315
352.5 K	0.00339
355.4 K	0.00427
358.4 K	0.00528
360.4 K	0.0062
361.4 K	0.00658
361.5 K	0.00664
363.2 K	0.00752
365.4 K	0.00888
366.4 K	0.00943
368.4 K	0.01095
369.4 K	0.01187
371.4 K	0.01363
373.3 K	0.01527
374.4 K	0.01677
376.3 K	0.01869
377.4 K	0.02037
